Data reported in US4948807A, “Phenyl carbamates” (priority 1985, dated 1990).
pIC50: −log10 of the molar value. Read-outs that look alike come from different tables or passages of the source.

What was measured:
acetylcholinesterase [1] = details: compared with the monoquaternary molecules; cited from earlier work
[2] = in vivo; cited from earlier work
in vivo = details: mouse, in vivo
Method: Mice were given one of at least three different doses of each compound, orally or subcutaneously, a minimum of 10 mice allotted to each dose. The number of animals which died at each dose within 3 hours was determined.
This experiment was repeated after the animals had been pretreated with atropine sulphate, which blocks both peripheral and central muscarinic receptors.
What is important is the safety of the drugs and the presence and severity of side effects that may occur at therapeutic doses. A commonly-used measure of drug safety is the therapeutic index--or LD50 /ED50 [formula]
It is assumed that the therapeutic effect of these anticholinesterase agents results from an elevation of brain cholinergic activity. This in turn, should be related to the degree of inhibition of acetylcholinesterase. For the purpose of the computation of the denominator of the therapeutic ratio, there is used the dose of drug that inhibits the activity of acetylcholinesterase by 50%. […] The numerator is the dose found to kill 50% of the animals within […] of a subcutaneous injection.

acetylcholinesterase [3] = molecular target: T1, acetylcholinesterase (Mus musculus, UniProt P21836); assay: biochemical; format: biochemical
T1 construct: A solubilized preparation of acetylcholinesterase was prepared from mouse whole brain (minus cerebellum); from tissue; host or cells: mouse whole brain (minus cerebellum), membrane pellet solubilized with 1% Triton
T1 sequence (P21836 32-614): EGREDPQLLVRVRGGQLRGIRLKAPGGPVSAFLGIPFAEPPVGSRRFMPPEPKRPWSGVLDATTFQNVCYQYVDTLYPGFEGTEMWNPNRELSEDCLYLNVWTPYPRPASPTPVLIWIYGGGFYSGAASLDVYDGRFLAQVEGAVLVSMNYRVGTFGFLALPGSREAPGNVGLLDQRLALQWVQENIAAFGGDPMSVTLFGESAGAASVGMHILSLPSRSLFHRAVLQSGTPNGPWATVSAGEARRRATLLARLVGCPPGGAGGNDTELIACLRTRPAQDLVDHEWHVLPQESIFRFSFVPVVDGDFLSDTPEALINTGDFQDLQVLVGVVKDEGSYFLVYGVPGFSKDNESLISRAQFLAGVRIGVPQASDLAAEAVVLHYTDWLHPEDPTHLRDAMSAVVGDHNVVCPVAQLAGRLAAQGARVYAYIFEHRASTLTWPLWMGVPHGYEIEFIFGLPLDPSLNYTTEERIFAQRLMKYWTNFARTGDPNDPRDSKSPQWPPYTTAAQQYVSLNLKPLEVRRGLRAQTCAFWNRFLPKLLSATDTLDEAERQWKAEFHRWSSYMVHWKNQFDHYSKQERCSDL
Method: A solubilized preparation of acetylcholinesterase was prepared from mouse whole brain (minus cerebellum). The brain was homogenized with (100 mg/ml) phosphate buffer; pH 8.0, centrifuged, the supernatant discarded, and the pellet mixed with a similar volume as above of buffer pH 8.0 plus 1% Triton; mixed, centrifuged and the supernatant which contained most of the solubilized enzyme, was used for the subsequent determinations of anticholinesterase activity.
The activity of the enzyme (rate of hydrolysis of substrate, acetylthiocholine) was measured using at least 4 different concentrations of substrate, and at least 3 different concentrations of each inhibitor. The enzyme was incubated with inhibitor for periods ranging for 2-180 mins. at 37° C., substrate was then added, and its rate of hydrolysis measured by the spectrophotometric method of Ellman et al. (1961).

[4] = tested on: brain acetylcholinesterase; details: for Relative potency to physostigmine after oral administration / % cholinesterase inhibition 3 hours after s.c. administration / Relative potency to physostigmine after subcut. (s.c.) administration: mouse brain; for Relative potency to physostigmine after oral administration / Relative potency to physostigmine after subcut. (s.c.) administration: physostigmine = 100
Method: The effect of each compound on brain acetylcholinesterase in vivo was measured, after subcutaneous or oral administration to mice. Animals were sacrificed, at different times ranging from 0.25-8 hours after drug administration. The brain was rapidly removed, and the enzyme acetylcholinesterase extracted and solubilized with 0.1% Triton, and its ability to hydrolyse acetylthiocholine assessed as described above (in vitro experiments), in comparison with the enzyme removed from mice injected with normal saline.

[5] = eye drops; cited from earlier work
Huntingdon's chorea = details: injections; cited from earlier work
[6] = tested on: acetylcholinesterase in the cerebro-spinal fluid; details: patients with Alzheimer's disease; Thal et al. 1983; cited from earlier work
[7] = cited from earlier work; for penetration of the central nervous system: in vivo; for absorption from the gastro-intestinal tract: oral
tardive dyskinesias = details: injected intravenously; cited from earlier work
[8] = in vivo; cited from earlier work; remark: listed apart in the source
[9] = tested on: respiratory depressant effects of morphine; format: in vivo; details: rabbits
Method: Different doses of the carbamate compounds were injected intravenously with morphine in rabbits Respiration rate, arterial blood gas tensions and pH were monitored continuously before and after drug administration for 4-5 hours. In another series of experiments the effect of the anticholinesterase drugs was assessed on the analgesic effect of opiates in rabbits after application of a nociceptive stimulus, i.e. electrical stimulation of the sciatic nerve.

[10] = Ratio whose head is drawing 10 (Table 3; oral LD50 compared with s.c. LD50), mice, oral versus s.c.
[11] = sc, Therapeutic ratio LD50/ED50 s.c., mice, ED50 = dose inhibiting brain acetylcholinesterase by 50%
[12] = incubation of enzyme with inhibitor, 37° C.

## CC[N+](CC)(CCNC(=O)C(=O)NCC[N+](CC)(CC)Cc1ccccc1Cl)Cc1ccccc1Cl [Ambenonium]
Acetylcholinesterase [1]
  selectivity for acetylcholinesterase over butyrylcholinesterase: more selective inhibitors of acetylcholinesterase than butyrylcholinesterase

## CN(CCCCCCCCCCN(C)C(=O)Oc1cccc([N+](C)(C)C)c1)C(=O)Oc1cccc([N+](C)(C)C)c1 [Demacarium]
Acetylcholinesterase [1]
  selectivity for acetylcholinesterase over butyrylcholinesterase: more selective inhibitors of acetylcholinesterase than butyrylcholinesterase

## CNC(=O)Oc1cccc(C(C)N(C)C)c1 (centres unmarked) [Miotine, reference compound]
[2]
  insecticidal activity: claimed to be an insecticide
In vivo; [10]
  selectivity ratio: 1.2
In vivo; sc
  LD50 at 3 h: 4.5 µmol/kg
In vivo; [11]
  selectivity ratio: 4.9
Acetylcholinesterase [3]
  pIC50: 7.89
Acetylcholinesterase [3]; [12]
  Time of peak activity: 30 min
[4]
  Relative potency to physostigmine after oral administration: 300
  % cholinesterase inhibition 3 hours after s.c. administration: 5%
  Relative potency to physostigmine after subcut. (s.c.) administration: 100
[5]
  myopic activity: myopic agent

## CNC(=O)Oc1ccc2c(c1)[C@]1(C)CCN(C)[C@@H]1N2C [Physostigmine, reference compound]
Huntingdon's chorea
  benefit in Huntingdon's chorea: some benefit
[6]
  block of acetylcholinesterase in cerebro-spinal fluid at dose giving maximum improvement in short term memory: 50%
[7]
  penetration of the central nervous system: readily enters the brain
  absorption from the gastro-intestinal tract: irregular and unpredictable
Tardive dyskinesias
  improvement of tardive dyskinesias: significant but short lived improvement in a proportion of patients
In vivo; sc
  LD50 at 3 h: 3 µmol/kg
[8]
  half-life: 20 to 40 min
Acetylcholinesterase [3]
  pIC50: 7.96
  Time of peak activity: 30 min
[4]; mouse, in vivo
  duration of significant brain enzyme inhibition (>30%): less than 2 hours
[9]; 0.1-0.2 mg/kg
  duration of antagonism of the respiratory depressant effect of morphine: 30 to 60 min
[9]; with morphine
  muscle fasciculations: fasciculations are marked at the higher dose

## CCCNC(=O)Oc1cccc(C(C)N(C)C)c1 (centres unmarked) [RA15, N-propyl-3[1-(dimethylamino)ethyl]phenyl carbamate]
In vivo; Degree of protection afforded by pretreatment with atropine, ratio of LD50 after pretreatment with atropine sulphate 5 mg/kg to LD50 of drug alone
  selectivity ratio: 4.1
In vivo; [10]
  selectivity ratio: 4.5
In vivo; sc
  LD50 at 3 h: 31 µmol/kg
In vivo; [11]
  selectivity ratio: 11.1
Acetylcholinesterase [3]
  pIC50: 6.96
Acetylcholinesterase [3]; [12]
  Time of peak activity: 120 min
[4]; at ED50 dose
  duration of significant brain enzyme inhibition (>30%): more than 3 hours
[4]; comparison of Table 1 with Table 2
  relative in vivo activity compared to physostigmine versus in vitro data: relatively more active in vivo compared to physostigmine than one would expect from the in vitro data
[4]
  Relative potency to physostigmine after oral administration: 32
  % cholinesterase inhibition 3 hours after s.c. administration: 37%
  Relative potency to physostigmine after subcut. (s.c.) administration: 33
[4]; parenteral administration, in words
  duration of brain acetylcholinesterase inhibition compared with physostigmine or miotine: significantly longer duration
[9]; depending on drug and dose
  duration of significant antagonism of the respiratory depressant effects of morphine: 3 to 5 h

## CN(C)C(=O)Oc1cccc([N+](C)(C)C)c1 [neostigmine]
[7]
  penetration of the central nervous system: do not penetrate the central nervous system to any significant extent
  absorption from the gastro-intestinal tract: only poorly absorbed from the gastro-intestinal tract

## CN(C)C(=O)Oc1ccc[n+](C)c1 [pyridostigmine]
[7]
  penetration of the central nervous system: do not penetrate the central nervous system to any significant extent
  absorption from the gastro-intestinal tract: only poorly absorbed from the gastro-intestinal tract
